Patent publication EP0452101B1, “Spiro bridged and unbridged heterocyclic compounds” (ISRAEL INSTITUTE FOR BIOLOGICAL RESEARCH, priority 1990, dated 1991)
Several values for one entry are separate records, joined by “and”; a condition that tells them apart may be missing. Identical values can stand only once. Like-named read-outs stand apart in the source and are kept apart here.

Key:
muscarinic receptors = experiment: (-)3H-QNB binding to rat cerebral cortex homogenates with and without Cu++ treatment; conditions: for Ki: read-out: KL
M2 muscarinic receptors = biological target: T1, M2 muscarinic receptors (Rattus norvegicus, UniProt P10980); experiment: Displacement of 3H-QNB from rat cerebellum, 50 mM phosphate buffer; format: binding
T1 construct: displacing from rat brain homogenates, cerebellum or frontal cortex; from tissue; host or cells: rat cerebellum homogenates
T1 sequence (P10980 1-466): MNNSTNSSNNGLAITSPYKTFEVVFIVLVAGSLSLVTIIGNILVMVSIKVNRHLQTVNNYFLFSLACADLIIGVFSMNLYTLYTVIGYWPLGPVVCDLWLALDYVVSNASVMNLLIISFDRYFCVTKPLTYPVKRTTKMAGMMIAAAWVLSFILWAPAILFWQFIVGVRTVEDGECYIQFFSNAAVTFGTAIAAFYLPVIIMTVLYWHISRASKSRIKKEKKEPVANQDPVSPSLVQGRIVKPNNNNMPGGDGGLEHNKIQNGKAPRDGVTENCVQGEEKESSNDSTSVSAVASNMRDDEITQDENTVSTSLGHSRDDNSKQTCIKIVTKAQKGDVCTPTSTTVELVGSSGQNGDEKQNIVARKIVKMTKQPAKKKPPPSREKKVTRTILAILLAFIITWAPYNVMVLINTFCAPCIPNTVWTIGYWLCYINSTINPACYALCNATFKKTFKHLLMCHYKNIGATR

M1 muscarinic receptor [1] = biological target: T2, M1 muscarinic receptor (Rattus norvegicus, UniProt P08482); experiment: Displacement of 3H-QNB from rat cerebral cortex, 50 mM phosphate buffer; format: binding; conditions: for RATIOS c:a: KH2 cerebellum : KH1 cortex (3H-QNB); for % H1 / Ki: cortex, Table 5; for Ki: read-out: 3H-QNB-Binding KH1 (a)
T2 sequence (P08482 1-460): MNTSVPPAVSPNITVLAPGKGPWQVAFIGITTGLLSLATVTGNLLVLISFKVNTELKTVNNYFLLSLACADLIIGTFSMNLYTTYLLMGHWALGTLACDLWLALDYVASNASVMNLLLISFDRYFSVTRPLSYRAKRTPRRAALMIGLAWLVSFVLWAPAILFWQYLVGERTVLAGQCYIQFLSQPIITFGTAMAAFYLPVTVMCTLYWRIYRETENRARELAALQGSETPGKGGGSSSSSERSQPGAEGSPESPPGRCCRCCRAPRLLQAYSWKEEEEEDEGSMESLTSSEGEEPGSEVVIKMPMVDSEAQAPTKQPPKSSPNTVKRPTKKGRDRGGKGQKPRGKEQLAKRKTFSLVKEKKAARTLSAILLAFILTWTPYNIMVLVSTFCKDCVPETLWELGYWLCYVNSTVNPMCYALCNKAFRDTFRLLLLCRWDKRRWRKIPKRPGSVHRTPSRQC

M1 muscarinic receptor [2] = biological target: T2, M1 muscarinic receptor; experiment: Displacement of 3H-PZ from rat cerebral cortex, 10 mM phosphate buffer; format: binding; design: from tissue; host or cells: rat cerebral cortex homogenates; conditions: for RATIOS c:a: KH cerebellum (3H-QNB) : KH cortex (3H-PZ)
[3] = system: Male white mice of the CD-1 strain; experiment: Pharmacodynamic profile and general toxicity, Part B (signs, mortality, LD50); format: in vivo; design: key to Altered spontaneous motor activity (Mot): increased (inc); decreased (dec); key to Piloerection (Pil) / Hypothermia (Hyp) / Salivation (Sal) / Lacrimation (Lac) / Diarrhea (Dia) / Mydriasis (Myd): sli = slight; mod = moderate; sev = severe; conditions: Table 10
Excerpt: Male white mice of the CD-1 strain (Charles River, UK), within the body weight range of 18-26 g, were used throughout this study, carried out on AF123, AF125 and AF125(N).
Furthermore, these initial trials clearly established that the major signs of reactions to treatment consisted primarily of signs characteristic for potential cholinomimetic activity of the test material, such as tremors, salivation, lacrimation, diarrhea, analgesia, hypothermia and vasodilation. […]

scopolamine-treated rats = experiment: Passive avoidance (PA) in scopolamine-treated rats; format: in vivo, Sprague-Dawley rats
Method: Naive male Sprague-Dawley rats, three months old (obtained from Charles River Breeding, U.K.), were used (weighing 200-300 g.). The passive avoidance (PA) test is according to Fisher et al, Neurosci. Lett. 102: 325 (1989), except that in these rats amnesia was induced by scopolamine.
Eight groups of 17-20 naive rats were used. Each group was divided into two subgroups of 7-10 rats each: subgroup 1 was injected with scopolamine HBr (0.5 mg./kg. in saline, s.c., 15 min. before the shock) and subgroup 2 was injected with saline (1 ml./kg., s.c., 15 min. before the shock). Seven of the groups were treated within one minute after the shock with one of the following doses of the tested compound: 0.1, 0.5, 1, 3, 5, 8, 10 mg./kg. (in saline, i.p.) and one group received saline (1 ml./kg., i.p.).
Eight groups of 18-20 naive rats each were used. Each group was divided into two subgroups of 9-10 rats each: subgroup 1 was injected with scopolamine HBr (0.5 mg./kg. in saline, s.c., 15 min. before the shock) and subgroup 2 was injected with saline (1 ml./kg., s.c., 15 min. before the shock). Seven of the groups were treated, within one minute after the shock, with one of the following doses of AF125(N): 0.1, 0.5, 1, 3, 5, 8 or 10 mg./kg. (in saline, i.p.) and one group received saline (1 ml./kg., i.p.).

[4] = with Cu++ pretreatment (100 µM, 30 minutes)
[5] = cortex, Table 4, read-out: 3H-PZ-Binding KH (a)
[6] = 20 mg/kg i.v., animals affected/treated
[7] = post-shock AF125(N) 0.1 mg/kg i.p., pre-shock Scopolamine
[8] = post-shock AF125(N) 0.1 mg/kg i.p., pre-shock saline
[9] = post-shock AF125(N) 0.5 mg/kg i.p., pre-shock Scopolamine, 0.5 mg/kg
[10] = post-shock AF125(N) 0.5 mg/kg i.p., pre-shock saline
[11] = post-shock AF125(N) 1.0 mg/kg i.p., pre-shock Scopolamine
[12] = post-shock AF125(N) 1.0 mg/kg i.p., pre-shock saline
[13] = post-shock AF125(N) 3.0 mg/kg i.p., pre-shock Scopolamine
[14] = post-shock AF125(N) 3.0 mg/kg i.p., pre-shock saline
[15] = post-shock AF125(N) 5.0 mg/kg i.p., pre-shock Scopolamine
[16] = post-shock AF125(N) 5.0 mg/kg i.p., pre-shock saline, 5 mg/kg
[17] = post-shock AF125(N) 8.0 mg/kg i.p., pre-shock Scopolamine
[18] = post-shock AF125(N) 8.0 mg/kg i.p., pre-shock saline
[19] = post-shock AF125(N) 10.0 mg/kg i.p., pre-shock Scopolamine
[20] = post-shock AF125(N) 10.0 mg/kg i.p., pre-shock saline

CN1CCN(CC(=O)N2c3ccccc3C(=O)Nc3cccnc32)CC1 [Pirenzepine]
%H (% of high affinity state) (muscarinic receptors; [4]): 64±6% | %H (% of high affinity state) (muscarinic receptors; without pretreatment): 72±3%

CN1[C@@H]2CC[C@H]1C[C@@H](OC(=O)C(CO)c1ccccc1)C2 (some centres unmarked) [Atropine]
%H (% of high affinity state) (muscarinic receptors): 0%

CN1[C@@H]2C[C@@H](OC(=O)[C@H](CO)c3ccccc3)C[C@H]1[C@@H]1O[C@@H]12 [Scopolamine]
%H (% of high affinity state) (muscarinic receptors; [4]): 0% | Ki (muscarinic receptors; with Cu++ pretreatment): 0.1 ± 0.005 nM | %H (% of high affinity state) (muscarinic receptors; without pretreatment): 0% | Ki (muscarinic receptors; without pretreatment): 0.09 ± 0.004 nM

c1ccc(C2=NCC3(CN4CCC3CC4)O2)cc1 (centres unmarked) [AF125(Ph), 2-Phenyl-spiro(1,3-oxazoline-5,3')quinuclidine]
% H (M2 muscarinic receptors; cerebellum, Table 4): 100% | Ki (M2 muscarinic receptors; cerebellum, Table 4, read-out: 3H-QNB-Binding KH (c)): 1370 nM | % H2 (M2 muscarinic receptors; cerebellum, Table 5): 100% | Ki (M2 muscarinic receptors; cerebellum, Table 5, read-out: 3H-QNB-Binding KH2 (c)): 1370 nM | RATIOS c:a (M1 muscarinic receptor [1]): 1.7 | % H1 (M1 muscarinic receptor [1]): 100% | Ki (M1 muscarinic receptor [1]): 800 nM | RATIOS c:a (M1 muscarinic receptor [2]): 17.1 | % H (M1 muscarinic receptor [2]; cortex, Table 4): 100% | Ki (M1 muscarinic receptor [2]; [5]): 80 nM

NC1=NCC2(CN3CCC2CC3)O1 (centres unmarked) [AF125(N), 2-Amino-spiro(1,3-oxazoline-5,3')quinuclidine]
% H (M2 muscarinic receptors; cerebellum, Table 4): 100% | % H2 (M2 muscarinic receptors; cerebellum, Table 5): 100% | Ki (M2 muscarinic receptors; read-out: 3H-QNB-Binding KH2 (c)): 50000 nM | Ki (M2 muscarinic receptors; read-out: 3H-QNB-Binding KH (c)): 5000 nM | RATIOS c:a (M1 muscarinic receptor [1]): 0.4 | % H1 (M1 muscarinic receptor [1]): 100% | Ki (M1 muscarinic receptor [1]): 112000 nM | Altered spontaneous motor activity (Mot) ([3]; 20 mg/kg i.v.): dec | Mortality no. ([3]; 20 mg/kg i.v.): 0/5 | Mydriasis (Myd) ([3]; 20 mg/kg i.v.): sli | Salivation (Sal) ([3]; 20 mg/kg i.v.): sli | Respiratory distress (Res) [3, 6]: 4/5 | Tremors (Tre) [3, 6]: 3/5 | Mortality no. ([3]; 50 mg/kg i.v.): 5/5 | Mortality time ([3]; 50 mg/kg i.v.): immed | Mortality no. ([3]; 100 mg/kg i.v.): 5/5 | Mortality time ([3]; 100 mg/kg i.v.): immed | Altered spontaneous motor activity (Mot) ([3]; 200 mg/kg p.os): inc | Mortality no. ([3]; 200 mg/kg p.os): 0/5 | Mydriasis (Myd) ([3]; 200 mg/kg p.os): sli | doses with significant enhancing effect on retention latency (scopolamine-treated rats; i.p., scopolamine-treated rats): 0.5 mg/kg | Initial latency, Mean (scopolamine-treated rats; [7]): 22.3 s | Retention latency, Mean (scopolamine-treated rats; [7]): 199.7 s | Initial latency, Mean (scopolamine-treated rats; [8]): 21.0 s | Retention latency, Mean (scopolamine-treated rats; [8]): 554.7 s | Initial latency, Mean (scopolamine-treated rats; [9]): 62.9 ± 17.4 s and 62.9 s | Retention latency, Mean (scopolamine-treated rats; [9]): 332.7±80.9 sec. and 332.7* sec. | Initial latency, Mean (scopolamine-treated rats; [10]): 28.1 s | Retention latency, Mean (scopolamine-treated rats; [10]): 600.0 s | Initial latency, Mean (scopolamine-treated rats; [11]): 29.1 s | Retention latency, Mean (scopolamine-treated rats; [11]): 114.8 s | Initial latency, Mean (scopolamine-treated rats; [12]): 22.0 s | Retention latency, Mean (scopolamine-treated rats; [12]): 448.9 s | Initial latency, Mean (scopolamine-treated rats; [13]): 23.1 s | Retention latency, Mean (scopolamine-treated rats; [13]): 243.4 s | Initial latency, Mean (scopolamine-treated rats; [14]): 44.1 s | Retention latency, Mean (scopolamine-treated rats; [14]): 500.1 s | Initial latency, Mean (scopolamine-treated rats; [15]): 24.6 s | Retention latency, Mean (scopolamine-treated rats; [15]): 181.6 s | Initial latency, Mean (scopolamine-treated rats; [16]): 65.1 ± 18.5 s and 65.1 s | Retention latency, Mean (scopolamine-treated rats; [16]): 290.3 ± 52.1 s and 290.3 s | Initial latency, Mean (scopolamine-treated rats; [17]): 16.3 s | Retention latency, Mean (scopolamine-treated rats; [17]): 210.2 s | Initial latency, Mean (scopolamine-treated rats; [18]): 19.3 s | Retention latency, Mean (scopolamine-treated rats; [18]): 552.0 s | Initial latency, Mean (scopolamine-treated rats; [19]): 21.5 s | Retention latency, Mean (scopolamine-treated rats; [19]): 129.7 s | Initial latency, Mean (scopolamine-treated rats; [20]): 4.9 s | Retention latency, Mean (scopolamine-treated rats; [20]): 417.5 s | RATIOS c:a (M1 muscarinic receptor [2]): 83 | % H (M1 muscarinic receptor [2]; cortex, Table 4): 28% | %L (M1 muscarinic receptor [2]; cortex, Table 4): 72% | Ki (M1 muscarinic receptor [2]; [5]): 600 nM | Ki (M1 muscarinic receptor [2]; cortex, Table 4, read-out: 3H-PZ-Binding KL (b)): 3000 nM
